Assay type in all cases: cell-based, human
The subject of assay [1] is FAS phosphorylation in HCT-116 cell line. The assay can be described thus: Effect of okadaic acid on FAS phosphorylation in HCT-116 cells (FIG. 7A). To be noted: brief treatment with 100 nM okadaic acid; HCT-116 colon cancer cell line. From the text: (§1) The relationship between FAS phosphorylation and cancer was investigated with a panel of the following human immortalized non-transformed cell lines: IMR-90 fetal lung, hPS human prostate and human cancer cell lines: HCT-116 colon, PPC-1 prostate, and SKBr3 breast. FAS enzyme levels (adjusted to total cellular protein) were quantitated by immunoblot and normalized to IMR-90. Both IMR-90 and hPS non-transformed cell lines had relatively low levels of FAS expression compared to the cancer cell lines, which ranged from 4.3 to 22 fold elevations compared to IMR-90 cells. The high level of FAS expression in SKBr3 cells is consistent with the observation that 28% of its cytosolic protein is FAS (Thompson et al., Biochem. Biophys Acta, 662: 125-130 (1981)).
(§2) Because the FAS expression levels in this panel of cells is consistent with observations made in vivo, the possibility of differential FAS phosphorylation in these cells was investigated. […] No immunoreactivity was detected with an anti-phosphotyrosine or an anti-phosphoserine antibody, although additional antibodies and FAS proteins were not tested. Additional human cancer cell lines, such as LnCAP, OVCAR-3, SKOV3 (ovary), RKO (colon), H460, LX7 (lung), CAPAN-1, and PANC-1 (pancreas) can also be assessed for differential FAS phosphorylation as described above. […]

The subject of assay [2] is FAS phosphorylation in PPC-1 cell line. Briefly: Effect of okadaic acid on FAS phosphorylation in PPC-1 cells (FIG. 7A). Conditions: brief treatment with 100 nM okadaic acid; PPC-1 prostate cancer cell line.
Text: as §1, §2

Assay [3] has as its system total cellular FAS. The assay can be described thus: Effect of okadaic acid treatment on total cellular FAS (FIG. 7B). Conditions: cell line not stated. From the text:
FIGS. 7A and 7B, illustrates that phosphorylated FAS increases with okadaic acid treatment (part A) while total FAS protein is reduced (part B).
The effect of okadaic acid, a protein phosphatase 2A inhibitor, in FAS phosphorylation was studied.

Turning to `C=C1[C@@H](O)[C@@H]2O[C@]3(CC[C@H](/C=C/[C@@H](C)[C@@H]4CC(C)=C[C@@]5(O[C@H](C[C@@](C)(O)C(=O)O)CC[C@H]5O)O4)O3)CC[C@H]2O[C@@H]1[C@@H](O)C[C@H](C)[C@H]1O[C@@]2(CCCCO2)CC[C@H]1C` [okadaic acid], the “ratio of phosphorylated FAS to total FAS” value in assay [1] and in assay [2] was “increases substantially” throughout. Besides, the “total FAS protein” value in assay [3] is recorded as “reduced”.
